Patent publication US9724347B2, “1-pyrazolyl-3-(4-((2-anilinopyrimidin-4-yl)oxy)napththalen-1-yl) ureas as P38 MAP knase inhibitors” (Respivert Ltd., priority 2011, dated 2017)

How the values were obtained:
[1] = biological target: p38 MAPKα isoform (MAPK14) (Homo sapiens (Human), UniProt Q16539); assay: p38 MAPKα enzyme inhibition (FRET, Z-LYTE); format: biochemical
Experimental: The enzyme inhibitory activities of compounds disclosed herein were determined by FRET using synthetic peptides labelled with both donor and acceptor fluorophores (Z-LYTE, Invitrogen Ltd., Paisley, UK). The inhibitory activities of test compounds against the p38 MAPKα isoform (MAPK14: Invitrogen), were evaluated indirectly by determining the level of activation/phosphorylation of the down-stream molecule, MAPKAP-K2. […] The mixture was incubated for 1 hr at RT. Development reagent (protease, 5 μL) was added for 1 hr prior to detection in a fluorescence microplate reader (Varioskan® Flash, ThermoFisher Scientific). In all cases, the site-specific protease cleaves non-phosphorylated peptide only and eliminates the FRET signal. Phosphorylation levels of each reaction were calculated using the ratio of coumarin emission (donor) over fluorescein emission (acceptor), for which low ratios indicate high phosphorylation and high ratios indicate low phosphorylation levels.

p38MAPKγ (MAPK12) = p38MAPKγ (MAPK12) (Homo sapiens (Human), UniProt P53778); assay: p38 MAPKγ enzyme inhibition (FRET, Z-LYTE); format: biochemical
Sequence of p38MAPKγ (MAPK12) (P53778 whole entry): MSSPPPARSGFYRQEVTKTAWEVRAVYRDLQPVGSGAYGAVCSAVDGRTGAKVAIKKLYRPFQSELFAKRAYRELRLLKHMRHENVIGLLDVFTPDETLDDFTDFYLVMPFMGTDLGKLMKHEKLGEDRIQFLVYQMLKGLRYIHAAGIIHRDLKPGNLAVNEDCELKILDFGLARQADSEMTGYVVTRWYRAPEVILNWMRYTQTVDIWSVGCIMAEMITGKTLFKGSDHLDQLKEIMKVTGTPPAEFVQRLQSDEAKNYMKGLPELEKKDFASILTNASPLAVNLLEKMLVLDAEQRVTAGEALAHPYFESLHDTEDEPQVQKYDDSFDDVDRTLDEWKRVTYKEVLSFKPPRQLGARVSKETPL
Experimental: The enzyme inhibitory activities of compounds disclosed herein were determined by FRET using synthetic peptides labelled with both donor and acceptor fluorophores (Z-LYTE, Invitrogen Ltd., Paisley, UK). […] Development reagent (protease, 5 μL) was added for 1 hr prior to detection in a fluorescence microplate reader (Varioskan® Flash, Thermo Scientific). In all cases, the site-specific protease cleaves non-phosphorylated peptide only and eliminates the FRET signal. Phosphorylation levels of each reaction were calculated using the ratio of coumarin emission (donor) over fluorescein emission (acceptor), for which low ratios indicate high phosphorylation and high ratios indicate low phosphorylation levels.

GSK 3α enzyme isoform = GSK 3α enzyme isoform (Homo sapiens (Human), UniProt P49840); assay: GSK 3α enzyme inhibition (FRET, Z-LYTE); format: biochemical; conditions: read-out: IC50 Values for Enzyme Inhibition GSK3α
Sequence of GSK 3α enzyme isoform (P49840 whole entry, canonical isoform): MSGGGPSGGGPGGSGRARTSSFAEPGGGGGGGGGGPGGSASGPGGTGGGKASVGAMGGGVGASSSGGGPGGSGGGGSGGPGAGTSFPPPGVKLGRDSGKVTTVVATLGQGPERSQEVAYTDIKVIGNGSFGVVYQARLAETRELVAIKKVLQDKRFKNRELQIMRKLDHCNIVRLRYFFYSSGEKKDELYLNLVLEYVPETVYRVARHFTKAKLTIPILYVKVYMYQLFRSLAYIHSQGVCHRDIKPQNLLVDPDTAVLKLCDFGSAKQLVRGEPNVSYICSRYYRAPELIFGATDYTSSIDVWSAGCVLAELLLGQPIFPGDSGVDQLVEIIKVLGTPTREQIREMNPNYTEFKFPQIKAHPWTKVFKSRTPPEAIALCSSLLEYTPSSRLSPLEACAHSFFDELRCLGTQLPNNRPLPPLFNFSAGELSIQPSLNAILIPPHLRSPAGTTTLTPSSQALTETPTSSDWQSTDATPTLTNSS
Experimental: The enzyme inhibitory activities of compounds disclosed herein were determined by FRET using synthetic peptides labelled with both donor and acceptor fluorophores (Z-LYTE, Invitrogen Ltd., Paisley, UK).
The inhibitory activities of test compounds against the GSK 3α enzyme isoform (Invitrogen), were evaluated by determining the level of activation/phosphorylation of the target peptide.
The GSK3-α protein (500 ng/mL, 2.5 μL) was mixed with the test compound (2.5 μL at either 4 μg/mL, 0.4 μg/mL, 0.04 μg/mL, or 0.004 μg/mL) for 2 hr at RT. The FRET peptide (8 μM, 2.5 μL), which is a phosphorylation target for GSK3α, and ATP (40 μM, 2.5 μL) were then added to the enzyme/compound mixture and the resulting mixture incubated for 1 hr. Development reagent (protease, 5 μL) was added for 1 hr prior to detection in a fluorescence microplate reader (Varioskan® Flash, ThermoFisher Scientific).
In all cases, the site-specific protease cleaves non-phosphorylated peptide only and eliminates the FRET signal. Phosphorylation levels of each reaction were calculated using the ratio of coumarin emission (donor) over fluorescein emission (acceptor), for which low ratios indicate high phosphorylation and high ratios indicate low phosphorylation levels.

[2] = test system: ICAM-1 expression in BEAS2B cells; assay: Poly I:C-induced ICAM-1 expression in BEAS2B cells; format: cell-based, human; conditions: Homo sapiens, BEAS-2B, read-out: PolyIC/ICAM1 IC50 (BEAS2B)
Experimental: Poly I:C was used in these studies as a simple, RNA virus mimic. Poly I:C-Oligofectamine mixture (1 μg/mL Poly I:C, ±2% Oligofectamine, 25 μL; Invivogen Ltd., San Diego, Calif., and Invitrogen, Carlsbad, Calif., respectively) was transfected into BEAS2B cells (human bronchial epithelial cells, ATCC). Cells were pre-incubated with final concentrations of test compounds for 2 hr and the level of ICAM-1 expression on the cell surface was determined by cell-based ELISA. At a time point 18 hr after poly I:C transfection, cells were fixed with 4% formaldehyde in PBS (100 μL) and then endogenous peroxidase was quenched by the addition of washing buffer (100 μL, 0.05% Tween in PBS: PBS-Tween) containing 0.1% sodium azide and 1% hydrogen peroxide. Cells were washed with wash-buffer (3×200 μL). and after blocking the wells with 5% milk in PBS-Tween (100 μL) for 1 hr, the cells were incubated with anti-human ICAM-1 antibody (50 μL; Cell Signaling Technology, Danvers, Mass.) in 1% BSA PBS overnight at 4° C.
The cells were washed with PBS-Tween (3×200 μL) and incubated with the secondary antibody (100 μL; HRP-conjugated anti-rabbit IgG, Dako Ltd., Glostrup, Denmark). The cells were then incubated with of substrate (50 μL) for 2-20 min, followed by the addition of stop solution (50 μL, 1N H2SO4). The ICAM-1 signal was detected by reading […] the absorbance at 450 nm against a reference wavelength of 655 nm using a spectrophotometer. The cells were then washed with PBS-Tween (3×200 μL) and total cell numbers in each well were determined by reading absorbance at 595 nm after Crystal Violet staining (50 μL of a 2% solution in PBS) and elution by 1% SDS solution (100 μL) in distilled water. The measured OD 450-655 readings were corrected for cell number by dividing with the OD595 reading in each well. The inhibition of ICAM-1 expression was calculated at each concentration of test compound by comparison with vehicle control.

d-U937 cells = assay: Cell viability: MTT assay; format: cell-based, human; conditions: 1 μg/mL
Experimental: Differentiated U937 cells were pre-incubated with each test compound (final concentration 1 μg/mL or 10 μg/mL in 200 μL media indicated below) under two protocols: the first for 4 hr in 5% FCS RPMI1640 media and the second in 10% FCS RPMI1640 media for 24 h. The supernatant was replaced with new media (200 μL) and MTT stock solution (10 μL, 5 mg/mL) was added to each well. After incubation for 1 hr the media were removed, DMSO (200 μL) was added to each well and the plates were shaken lightly for 1 hr prior to reading the absorbance at 550 nm. The percentage loss of cell viability was calculated for each well relative to vehicle (0.5% DMSO) treatment. Consequently an apparent increase in cell viability for drug treatment relative to vehicle is tabulated as a negative percentage.

Sequence of p38 MAPKα isoform (MAPK14) (Q16539 whole entry, canonical isoform): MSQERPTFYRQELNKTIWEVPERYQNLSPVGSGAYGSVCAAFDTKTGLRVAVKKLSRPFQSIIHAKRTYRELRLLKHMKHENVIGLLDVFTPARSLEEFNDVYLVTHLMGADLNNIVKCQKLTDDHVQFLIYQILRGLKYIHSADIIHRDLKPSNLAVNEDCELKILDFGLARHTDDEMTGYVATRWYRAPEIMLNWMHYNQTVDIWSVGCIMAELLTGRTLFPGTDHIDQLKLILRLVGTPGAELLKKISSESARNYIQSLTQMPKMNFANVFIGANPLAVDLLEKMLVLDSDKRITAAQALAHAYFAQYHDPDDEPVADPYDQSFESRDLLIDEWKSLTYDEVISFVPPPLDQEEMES

## COc1ccc(Nc2nccc(Oc3ccc(NC(=O)Nc4cc(C(C)(C)C)nn4-c4ccc(C)cc4)c4ccccc34)n2)cc1 [Example 17, 1-(3-(tert-butyl)-1-(p-tolyl)-1H-pyrazol-5-yl)-3-(4-((2-((4-methoxyphenyl)amino)pyrimidin-4-yl)oxy)naphthalen-1-yl)urea]
[1]
  IC50: 83 nM
p38MAPKγ (MAPK12)
  IC50: > 16300 nM
GSK 3α enzyme isoform
  IC50: > 16300 nM
[2]
  IC50: 6.7 nM
d-U937 cells; 4 h
  MTT Assay Cell viability at time point in d-U937 Cells: −ve (−ve and +ve indicate the value is below and above respectively, the no significant effect threshold defined as 30% inhibition at 1 μg/mL at the time point indicated)
d-U937 cells; 24 h
  MTT Assay Cell viability at time point in d-U937 Cells: −ve (−ve and +ve indicate the value is below and above respectively, the no significant effect threshold defined as 30% inhibition at 1 μg/mL at the time point indicated)

## Cc1ccc(-n2nc(C(C)(C)C)cc2NC(=O)Nc2ccc(Oc3ccnc(Nc4ccccc4C(C)C)n3)c3ccccc23)cc1 [Example 20, 1-(3-(tert-butyl)-1-(p-tolyl)-1H-pyrazol-5-yl)-3-(4-((2-((2-isopropylphenyl)amino)pyrimidin-4-yl)oxy)naphthalen-1-yl)urea]
[1]
  IC50: 9 nM
p38MAPKγ (MAPK12)
  IC50: > 16000 nM
GSK 3α enzyme isoform
  IC50: > 16000 nM
[2]
  IC50: 16 nM
d-U937 cells; 4 h
  MTT Assay Cell viability at time point in d-U937 Cells: −ve (−ve and +ve indicate the value is below and above respectively, the no significant effect threshold defined as 30% inhibition at 1 μg/mL at the time point indicated)
d-U937 cells; 24 h
  MTT Assay Cell viability at time point in d-U937 Cells: −ve (−ve and +ve indicate the value is below and above respectively, the no significant effect threshold defined as 30% inhibition at 1 μg/mL at the time point indicated)

## Cc1ccc(-n2nc(C(C)(C)C)cc2NC(=O)Nc2ccc(Oc3ccnc(Nc4ccccc4C)n3)c3ccccc23)cc1 [Example 21, 1-(3-(tert-butyl)-1-(p-tolyl)-1H-pyrazol-5-yl)-3-(4-((2-(o-tolylamino)pyrimidin-4-yl)oxy)naphthalen-1-yl)urea]
[1]
  IC50: 33 nM
p38MAPKγ (MAPK12)
  IC50: > 1670 nM
GSK 3α enzyme isoform
  IC50: > 1670 nM
[2]
  IC50: 36 nM
d-U937 cells; 4 h
  MTT Assay Cell viability at time point in d-U937 Cells: −ve (−ve and +ve indicate the value is below and above respectively, the no significant effect threshold defined as 30% inhibition at 1 μg/mL at the time point indicated)
d-U937 cells; 24 h
  MTT Assay Cell viability at time point in d-U937 Cells: −ve (−ve and +ve indicate the value is below and above respectively, the no significant effect threshold defined as 30% inhibition at 1 μg/mL at the time point indicated)

## Cc1ccc(-n2nc(C(C)(C)C)cc2NC(=O)Nc2ccc(Oc3ccnc(Nc4ccc(F)cc4)n3)c3ccccc23)cc1 [Example 23, 1-(3-(tert-butyl)-1-(p-tolyl)-1H-pyrazol-5-yl)-3-(4-((2-((4-fluorophenyl)amino)pyrimidin-4-yl)oxy)naphthalen-1-yl)urea]
[1]
  IC50: 212 nM
p38MAPKγ (MAPK12)
  IC50: > 1660 nM
GSK 3α enzyme isoform
  IC50: > 1660 nM
[2]
  IC50: 4.2 nM
d-U937 cells; 4 h
  MTT Assay Cell viability at time point in d-U937 Cells: −ve (−ve and +ve indicate the value is below and above respectively, the no significant effect threshold defined as 30% inhibition at 1 μg/mL at the time point indicated)
d-U937 cells; 24 h
  MTT Assay Cell viability at time point in d-U937 Cells: −ve (−ve and +ve indicate the value is below and above respectively, the no significant effect threshold defined as 30% inhibition at 1 μg/mL at the time point indicated)

## COc1ccc(Nc2nccc(Oc3ccc(NC(=O)Nc4cc(C(C)(C)C)nn4-c4ccc(C)cc4)c4ccccc34)n2)cc1Cl [Example 28, 1-(3-(tert-butyl)-1-(p-tolyl)-1H-pyrazol-5-yl)-3-(4-((2-((3-chloro-4-methoxyphenyl)amino)pyrimidin-4-yl)oxy)naphthalen-1-yl)urea]
[1]
  IC50: 1420 nM
p38MAPKγ (MAPK12)
  IC50: > 1540 nM
GSK 3α enzyme isoform
  IC50: > 1540 nM
[2]
  IC50: 3 nM
d-U937 cells; 4 h
  MTT Assay Cell viability at time point in d-U937 Cells: −ve (−ve and +ve indicate the value is below and above respectively, the no significant effect threshold defined as 30% inhibition at 1 μg/mL at the time point indicated)
d-U937 cells; 24 h
  MTT Assay Cell viability at time point in d-U937 Cells: −ve (−ve and +ve indicate the value is below and above respectively, the no significant effect threshold defined as 30% inhibition at 1 μg/mL at the time point indicated)

## Cc1ccc(-n2nc(C(C)(C)C)cc2NC(=O)Nc2ccc(Oc3ccnc(Nc4ccc(O)cc4F)n3)c3ccccc23)cc1 [Example 30, 1-(3-(tert-butyl)-1-(p-tolyl)-1H-pyrazol-5-yl)-3-(4-((2-((2-fluoro-4-hydroxyphenyl)amino)pyrimidin-4-yl)oxy)naphthalen-1-yl)urea]
[1]
  IC50: 68 nM
p38MAPKγ (MAPK12)
  IC50: > 1620 nM
GSK 3α enzyme isoform
  IC50: > 1620 nM
[2]
  IC50: 11 nM
d-U937 cells; 4 h
  MTT Assay Cell viability at time point in d-U937 Cells: −ve (−ve and +ve indicate the value is below and above respectively, the no significant effect threshold defined as 30% inhibition at 1 μg/mL at the time point indicated)
d-U937 cells; 24 h
  MTT Assay Cell viability at time point in d-U937 Cells: −ve (−ve and +ve indicate the value is below and above respectively, the no significant effect threshold defined as 30% inhibition at 1 μg/mL at the time point indicated)

## Cc1ccc(-n2nc(C(C)(C)C)cc2NC(=O)Nc2ccc(Oc3ccnc(Nc4ccc(O)cc4Cl)n3)c3ccccc23)cc1 [Example 31, 1-(3-(tert-butyl)-1-(p-tolyl)-1H-pyrazol-5-yl)-3-(4-((2-((2-chloro-4-hydroxyphenyl)amino)pyrimidin-4-yl)oxy)naphthalen-1-yl)urea]
[1]
  IC50: 118 nM
p38MAPKγ (MAPK12)
  IC50: > 1580 nM
GSK 3α enzyme isoform
  IC50: > 1580 nM
[2]
  IC50: 80 nM
d-U937 cells; 4 h
  MTT Assay Cell viability at time point in d-U937 Cells: −ve (−ve and +ve indicate the value is below and above respectively, the no significant effect threshold defined as 30% inhibition at 1 μg/mL at the time point indicated)
d-U937 cells; 24 h
  MTT Assay Cell viability at time point in d-U937 Cells: −ve (−ve and +ve indicate the value is below and above respectively, the no significant effect threshold defined as 30% inhibition at 1 μg/mL at the time point indicated)
